These results are taken from EP4285989A1 (priority 2021, dated 2022).

Common to all, as to format: cell-based
Assay [1] concerns Clostridium butyricum M-II588. The following applies: 1 w/v% carbohydrate, anaerobic, 37°C; for hydrogen generation (hydrogen production amount): 24 hours, calculated from increased amount of gas × hydrogen concentration (FIG. 6); for increased amount of gas: preculture 5 v/v%, 24 hours (FIG. 5).
Assay [2] concerns Clostridium butyricum M-II588. The following applies: 1 w/v% carbohydrate, anaerobic, 37°C, 20 hours.
Assay [3] has as its system Staphylococcus aureus IFO 12732. Briefly: Anti-bacterial action: Staphylococcus aureus count in (co-)culture, dilution plate technique. The following applies: 20 hours, 37°C, anaerobic; 0.5 w/v% α-CD; butyric acid bacteria 9.4×10^6 CFU/mL; S. aureus 7.5×10^2 CFU/mL (FIG. 4). As to the method:
Culture of Staphylococcus aureus alone, Staphylococcus aureus and 0.5 w/v% α-CD in coexistence, Staphylococcus aureus and butyric acid bacteria in coexistence, or Staphylococcus aureus and butyric acid bacteria in coexistence with 0.5 w/v% α-CD added was performed at 37°C under an anaerobic condition, and the number of Staphylococcus aureus was counted 20 hours after the start of culture. The amount of Staphylococcus aureus added was 7.5×10^2 CFU/mL as the final concentration, and the amount of butyric acid bacteria added was 9.4×10^6 CFU/mL as the final concentration. The number of Staphylococcus aureus was measured by the dilution plate technique, that is, spreading a moderately diluted culture solution on an agar medium, culturing it at 37°C under an aerobic condition, and counting the number of colonies formed. The test results are shown as mean ± standard error of three samples.

The test system of assay [4] is Clostridium butyricum M-II588. The following applies: 1 w/v% carbohydrate, sugar-free medium, anaerobic, 37°C, 20 hours; compared to other carbohydrates (FIG. 1).

For the compound `OC[C@H]1O[C@@H](O[C@H]2[C@H](O)[C@@H](O)[C@@H](O[C@]3(CO)O[C@H](CO)[C@@H](O)[C@@H]3O)O[C@@H]2CO)[C@H](O)[C@@H](O)[C@H]1O` [LS, Lactosucrose, reference compound], in assay [1], the “hydrogen generation (hydrogen production amount)” value was “very little” and the “increased amount of gas” value is “very little”.

With α-cyclodextrin [α-CD], the “production of butyric acid” value in assay [2] (compared to other carbohydrates (FIG. 2)) was “significantly promoted”. Also, the “production of acetic acid” value in assay [2] (compared to other carbohydrates (FIG. 3)) is on record as “significantly promoted”. In assay [3], the “proliferation of Staphylococcus aureus (number of Staphylococcus aureus)” value is reported as “almost no proliferation inhibiting effect”. Also, in assay [4], the “proliferation of butyric acid bacteria (turbidity change (ΔOD) at 660 nm)” value is “significantly promoted”. Also, in assay [1], the “hydrogen generation (hydrogen production amount)” value is given as “hydrogen was generated” and the “increased amount of gas” value is on record as “significantly increased”.
